This passage reports IC50 and melting point results from patent US20080167314A1, “Condensed Imidazole Compound And Use Thereof” (priority 2004, published 2008).

Data set [1] relates to TNF-α production in THP-1 cells. Kind of data set: Measurement of TNF-α production inhibitory activity in LPS-stimulated THP-1 cells (ELISA). The format is cell-based. The following applies: Homo sapiens, LPS 5 μg/mL, 4 hours, TNF-α in supernatant by ELISA. How it is done:
Measurement of TNF-α Production Inhibitory Activity
After THP-1 cells which had been cultured in PRMI 1640 medium (manufactured by Life Technologies, Inc.) containing 1% non-activated bovine fetal serum (manufactured by Life Technologies, Inc., U.S.A.) and 10 mM HEPES (pH 7.5) was plated on a 96-well plate to 1×10^5 cells/well, 1 μL test compound dissolved in DMSO was added to there. After incubation at 37° C. for 1 hour in a CO2 incubator, LPS (Wako Pure Chemicals) was added to the final concentration 5 μg/mL. After cultured at 37° C. for 4 hours in a CO2 incubator, the supernatant was obtained by centrifugation. The concentration of TNF-α in the supernatant was measured with ELISA (R&D System, Quantikine Kit). The concentration (IC50 value) necessary for inhibiting TNF-α production by 50% was calculated by PRIMS 2.01 (Graphpad Software).

For data set [2], the target named is T1, active form p38 MAP kinase (Homo sapiens, UniProt Q16539).
T1 construct: made in house; host or cells: Sf-21 insect cells, baculovirus BAC-HP38 co-infected with BAC-caMKK3
T1 sequence (Q16539 whole entry): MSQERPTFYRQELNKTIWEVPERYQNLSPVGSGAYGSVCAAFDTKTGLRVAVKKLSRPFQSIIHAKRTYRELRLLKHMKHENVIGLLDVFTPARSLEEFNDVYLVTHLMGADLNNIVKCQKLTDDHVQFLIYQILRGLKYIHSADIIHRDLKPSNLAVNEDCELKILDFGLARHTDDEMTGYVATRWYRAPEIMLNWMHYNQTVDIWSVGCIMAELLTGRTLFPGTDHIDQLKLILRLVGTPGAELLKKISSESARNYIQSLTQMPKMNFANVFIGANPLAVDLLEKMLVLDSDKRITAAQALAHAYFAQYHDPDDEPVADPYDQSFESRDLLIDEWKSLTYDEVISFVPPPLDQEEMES
Kind of data set: Measurement of the p38 MAP kinase inhibitory activity (32P uptake into Myelin Basic Protein). Format: biochemical. The conditions noted are these: 260 ng active form p38 MAP kinase, 1 μg Myelin Basic Protein, 2.5 μM ATP solution, 30° C. for 60 minutes. The protocol: (1) Cloning of Human p38 MAP Kinase Gene and Preparation of Recombinant Baculovirus
Cloning of human p38 MAP kinase gene was performed by a PCR method using a primer set P38-U:
(3) Preparation of Active Form p38 MAP Kinase
The Sf-21 cells were seeded on 100 ml Sf-900II SFM medium (GIBCOBRL) to 1×10^6 cells/mL and cultured at 27° C. for 24 hours. After each 0.2 mL of the virusstock BAC-HP38 of recombinant Baculovirus and BAC-caMKK3 were added, the culturing was further performed for 48 hours. After the cells were separated from the culturing solution by centrifugation (3000 rpm, 10 min), the cells were washed twice with PBS. After the cells were suspended in 10 ml Lysis buffer (25 mM HEPES (pH 7.5), 1% Triton X, 130 mM NaCl, 1 mM EDTA, 1 mM DTT, 25 mM β-glycerophosphate, […], 1 mM APMSF, 1 mM Sodium orthovanadate), the cells were lysed by treating twice with a homogenizer (POLYTRON) at 20000 rpm for 2 minutes. By using Anti-FLAG M2 Affinity Gel (Eastman Chemical), active form p38 MAP kinase was purified from the supernatant obtained by centrifugation (40000 rpm, 45 minutes).
(4) Measurement of the p38 MAP Kinase Inhibitory Activity
2.5 μL of a test compound dissolved in DMSO was added to 37.5 μL reaction solution (25 mM HEPES (pH 7.5), 10 mM Magnesium Acetate) containing 260 ng active form p38 MAP kinase and 1 μg Myelin Basic Protein, which was maintained at 30° C. for 5 minutes. The reaction was initiated by adding 10 μL ATP solution (2.5 μM ATP, 0.1 μCi [g-^32P]ATP). After the reaction was performed at 30° C. for 60 minutes, the reaction was stopped by adding 50 μL 20% TCA solution. After the reaction solution was allowed to stand at 0° C. for 20 minutes, an acid insoluble fraction was transferred to GF/C filter (Packard Japan) using Cell Harvester (Packard Japan) and washed with 250 mM H3PO4. After drying at 45° C. for 60 minutes, […] Microscint 0 (Packard Japan) was added and the radioactivity was measured with a TopCount (Packard Japan). The concentration (IC50 value) necessary for inhibiting uptake of ^32P into an acid insoluble fraction by 50% was calculated with PRISM 2.01 (Graphpad Software).

In data set [3] the test system is MMP-13 production in human normal articular chondrocytes. Kind of data set: Measurement of MMP-13 production inhibitory activity in rhIL-1β-stimulated human normal articular chondrocytes (ELISA). The conditions noted are these: Chondrocyte, rhIL-1β 0.1 ng/mL, 24 hr, MMP-13 in culture supernatant by ELISA. The format is cell-based. The protocol: Measurement of MMP-13 Production Inhibitory Activity
Human normal articular chondrocytes (Camblex) were grown in a chondrocyte growth medium (CGM: Camblex), and the cells were suspended in a chondrocyte differentiation medium (CDM: Camblex) and plated on a 96 well plate at 2×10^4 cells/well (150 μL/well). After culturing for 3 days under 37° C., 5% CO2 conditions, the culture medium was exchanged to 0.1% BSA added α-modification of Eagle's (α-MEM: Gibco), and the cells were cultured for 4 hr. The compound was added thereto and, after culture for 1 hr, recombinant human IL-1β (rhIL-1β: R&D systems) was added at 0.1 ng/mL. After culture for 24 hr, the culture supernatant was recovered, and the concentration of MMP-13 in the culture supernatant was measured by the ELISA method (Amersham).
(An ELISA detects its analyte on a solid surface through an enzyme-linked reagent.)

The term IC50 denotes the concentration needed to halve the response being measured. Read a high IC50 as a need for much substance. With `Cc1cccc(-c2nc3ccc(Cl)nn3c2-c2ccnc(F)c2)c1` [Example 1, 6-Chloro-3-(2-fluoropyridin-4-yl)-2-(3-methylphenyl)imidazo[1,2-b]pyridazine], the results for the IC50 in data set [1], in data set [2] and in data set [3] were 0.95 µM, 0.11 µM and 0.6 µM, respectively.
For `Cc1cccc(-c2nc3ccc(Cl)nn3c2-c2ccnc(NC3CCCCC3)c2)c1` [Example 2, 4-[6-Chloro-2-(3-methylphenyl)imidazo[1,2-b]pyridazin-3-yl]-N-cyclohexylpyridin-2-amine] the same measures were 0.028 µM, 0.19 µM and 0.011 µM.
For `Cc1cccc(-c2nc3cccnn3c2-c2ccnc(F)c2)c1` [Example 4, 3-(2-fluoropyridin-4-yl)-2-(3-methylphenyl)imidazo[1,2-b]pyridazine] the same measures were 0.32 µM, 0.16 µM and 1.52 µM.
On to `Cc1cccc(-c2nc3cccnn3c2-c2ccnc(NCC3CC3)c2)c1` [Example 5, N-(Cyclopropylmethyl)-4-[2-(3-methylphenyl)imidazo[1,2-b]pyridazin-3-yl]pyridin-2-amine], for which the 50% inhibitory concentration (IC50) is 0.0039 µM in data set [1], 0.0025 µM in data set [2] and 0.011 µM in data set [3].
For `Cc1cccc(-c2nc3ccc(N(C)C)nn3c2-c2ccnc(NC3CCCCC3)c2)c1` [Example 7, 3-[2-(cyclohexylamino)pyridin-4-yl]-N,N-dimethyl-2-(3-methylphenyl)imidazo[1,2-b]pyridazin-6-amine], in that order: 0.0001 µM, 0.0087 µM and 0.0051 µM.
For `CC(=O)Nc1cc(-c2c(-c3cccc(C)c3)nc3ccc(Cl)nn23)ccn1` [Example 17, N-{4-[6-Chloro-2-(3-methylphenyl)imidazo[1,2-b]pyridazin-3-yl]pyridin-2-yl}acetamide] the same measures were 0.12 µM, 0.023 µM and 0.22 µM.
Regarding `Cc1cccc(-c2nc3cccnn3c2-c2ccnc(NC(=O)c3ccccc3)c2)c1` [Example 19, N-{4-[2-(3-Methylphenyl)imidazo[1,2-b]pyridazin-3-yl]pyridin-2-yl}benzamide], the concentration for half-maximal inhibition (IC50) in data set [1] was found to be 0.018 µM; in data set [3], 0.073 µM.
`Cc1ccc(C(=O)Nc2cc(-c3c(-c4cccc(C)c4)nc4cccnn34)ccn2)cc1` [Example 20-1, 4-methyl-N-{4-[2-(3-methylphenyl)imidazo[1,2-b]pyridazin-3-yl]pyridin-2-yl}benzamide]: the IC50 came to 0.018 µM in data set [1], 0.0084 µM in data set [2] and 0.073 µM in data set [3].
For the molecule `COc1ccc(C(=O)Nc2cc(-c3c(-c4ccc(F)c(C)c4)nc4cccnn34)ccn2)cc1` [Example 21-16, N-{4-[2-(4-fluoro-3-methylphenyl)imidazo[1,2-b]pyridazin-3-yl]pyridin-2-yl}-4-methoxybenzamide], the figures for the IC50 in data set [1], in data set [2] and in data set [3] were 0.014 µM, 0.0012 µM and 0.041 µM, respectively.
For `Cc1cccc(-c2nc3cccnn3c2-c2ccnc(NC(=O)Nc3ccccc3)c2)c1` [Example 26, N-{4-[2-(3-Methylphenyl)imidazo[1,2-b]pyridazin-3-yl]pyridin-2-yl}-N′-phenylurea] the same measures were 0.33 µM, 0.022 µM and 0.077 µM.
For `Cc1cc(-c2nc3cccnn3c2-c2ccnc(NC(=O)c3ccc(F)cc3)c2)ccc1F` [Example 41-1, 4-fluoro-N-{4-[2-(4-fluoro-3-methylphenyl)imidazo[1,2-b]pyridazin-3-yl]pyridin-2-yl}benzamide], the IC50 in data set [1] amounted to 0.015 µM; in data set [2] it was 0.0081 µM; in data set [3], 0.035 µM.
For `Cc1cc(-c2nc3cccnn3c2-c2ccnc(NC(=O)C3CC3)c2)ccc1F` [Example 42-3, N-{4-[2-(4-fluoro-3-methylphenyl)imidazo[1,2-b]pyridazin-3-yl]pyridin-2-yl}cyclopropanecarboxamide], in that order: 0.0095 µM, 0.0087 µM and 0.035 µM.
For `CSCC(=O)Nc1cc(-c2c(-c3ccc(F)c(C)c3)nc3cccnn23)ccn1` [Example 42-6, N-{4-[2-(4-fluoro-3-methylphenyl)imidazo[1,2-b]pyridazin-3-yl]pyridin-2-yl}-2-(methylthio)acetamide], in that order: 0.0061 µM, 0.0077 µM and 0.011 µM.
For the molecule `Cc1cc(-c2nc3cccnn3c2-c2ccnc(NC(=O)c3ccncc3)c2)ccc1F` [Example 42-23, N-{4-[2-(4-fluoro-3-methylphenyl)imidazo[1,2-b]pyridazin-3-yl]pyridin-2-yl}isonicotinamide], the IC50 amounted to 0.01 µM in data set [1] and 0.014 µM in data set [3].
For `Cc1ccc(C(=O)Nc2cc(-c3c(-c4ccc(F)c(C)c4)nc4cccnn34)ccn2)cn1` [Example 42-27, N-{4-[2-(4-fluoro-3-methylphenyl)imidazo[1,2-b]pyridazin-3-yl]pyridin-2-yl}-6-methylnicotinamide], in that order: 0.0015 µM and 0.016 µM.
Consider `Cc1cc(-c2nc3cccnn3c2-c2ccnc(NC(=O)c3ccc4ncsc4c3)c2)ccc1F` [Example 42-35, N-{4-[2-(4-fluoro-3-methylphenyl)imidazo[1,2-b]pyridazin-3-yl]pyridin-2-yl}-1,3-benzothiazole-6-carboxamide], for which the IC50 came to 0.0025 µM in data set [1], 0.0039 µM in data set [2] and 0.0062 µM in data set [3].
As for `Cc1cc(C(=O)Nc2cc(-c3c(-c4ccc(F)c(C)c4)nc4cccnn34)ccn2)ccn1` [Example 58, N-{4-[2-(4-Fluoro-3-methylphenyl)imidazo[1,2-b]pyridazin-3-yl]pyridin-2-yl}-2-methylisonicotinamide], the figures for the half-inhibitory concentration (IC50) in data set [1] and in data set [3] were 0.0022 µM and 0.041 µM, respectively.
For `Cc1cc(-c2nc3cccnn3c2-c2ccnc(NC(=O)c3cccnc3)c2)ccc1F` [Example 59, N-{4-[2-(4-Fluoro-3-methylphenyl)imidazo[1,2-b]pyridazin-3-yl]pyridin-2-yl}nicotinamide], in that order: 0.0029 µM and 0.02 µM.
As a reminder, the melting point is the temperature of the solid-liquid transition. `CCC(CC)Nc1cc(-c2c(-c3cccc(C)c3)nc3cccnn23)ccn1` [Example compound 6-20, N-(1-ethylpropyl)-4-[2-(3-methylphenyl)imidazo[1,2-b]pyridazin-3-yl]pyridin-2-amine] displayed a melting point of 155 to 156 °C.
Regarding `COc1ccc(C(=O)Nc2cc(-c3c(-c4cccc(C)c4)nc4cccnn34)ccn2)cc1` [Example compound 20-2, 4-methoxy-N-{4-[2-(3-methylphenyl)imidazo[1,2-b]pyridazin-3-yl]pyridin-2-yl}benzamide], the melting point was in the range of 177 to 178 °C.
